Experimental findings from patent US20230124361A1, “SMALL MOLECULE STING ANTAGONISTS” (CURADEV PHARMA PVT. LTD., priority 2020, published 2023) are described below.

Structures are written as SMILES.

In the test the target is T1, STING (Homo sapiens, UniProt Q86WV6, G230A/H232R/R293Q/R71H).
T1 construct: host or cells: THP1-Dual cells (human THP-1 monocyte line with Lucia/SEAP reporters)
T1 sequence (Q86WV6 whole entry R71H/G230A/H232R/R293Q): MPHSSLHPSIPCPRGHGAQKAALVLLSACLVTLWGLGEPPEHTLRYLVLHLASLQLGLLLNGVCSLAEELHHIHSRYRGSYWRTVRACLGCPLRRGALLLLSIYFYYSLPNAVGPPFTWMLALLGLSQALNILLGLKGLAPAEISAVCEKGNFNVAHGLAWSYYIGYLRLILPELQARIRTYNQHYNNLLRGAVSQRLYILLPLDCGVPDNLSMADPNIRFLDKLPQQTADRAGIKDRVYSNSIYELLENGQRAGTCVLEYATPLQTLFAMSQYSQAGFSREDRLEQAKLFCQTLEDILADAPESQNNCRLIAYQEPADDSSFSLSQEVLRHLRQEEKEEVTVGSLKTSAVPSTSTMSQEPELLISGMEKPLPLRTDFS
Kind of test: Reporter gene expression assay in THP1-Dual cells (IRF pathway Lucia luciferase, 2',3'-cGAMP stimulation). The class given is cell-based. To be noted: 10 min preincubation, 5 μM 2',3'-cGAMP, 20 hr, IRF reporter QUANTI-Luc, read-out: THP-1 (HAQ) Activity. The essentials: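 THP1-Dual cells preincubated 10 min with compound, then stimulated with 5 μM 2′,3′-cGAMP for 20 hr. Secreted Lucia luciferase (IRF reporter) measured in supernatant by luminescence; IC50 reported as ranges (A ≤1 μM, B >1–≤10 μM, C >10 μM).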
For orientation: Reporter assays use an easily measured gene product as a stand-in for the process of interest.
In the case of `C=CCC1COc2ccc(NC(=O)Nc3ccc4cc[nH]c4c3)cc2N1Cc1ccccc1` (centres unmarked) [Example 78, 1-(3-Allyl-4-benzyl-3,4-dihydro-2H-benzo[b][1,4]oxazin-6-yl)-3-(1H-indol-6-yl)urea], the IC50 is ≤ 1 µM.

With `O=C(Nc1ccc2c(c1)OCC(=O)N2Cc1ccccc1)Nc1ccc2cc[nH]c2c1` [Example 69, 1-(4-Benzyl-3-oxo-3,4-dihydro-2H-benzo[b][1,4]oxazin-7-yl)-3-(1H-indol-6-yl)urea], the IC50 was ≤ 1 µM.

As to `O=C1CSc2ccc(OCCc3ccc(F)cc3)cc2N1Cc1c(F)cccc1Cl` [Example 41, 4-(2-Chloro-6-fluorobenzyl)-6-(4-fluorophenethoxy)-2H-benzo[b][1,4]thiazin-3(4H)-one], the IC50 is 1 to 10 µM.

With `O=C(Nc1ccc2c(c1)N(Cc1ccccc1)CCO2)Nc1cnc2cc[nH]c2c1` [Example 177, 1-(4-benzyl-3,4-dihydro-2H-benzo[b][1, 4]oxazin-6-yl)-3-(1H-pyrrolo[3,2-b]pyridin-6-yl)urea], the IC50 fell in the range of 1 to 10 µM.

Take `O=C(Nc1ccc2c(c1)OCCN2c1ncco1)Nc1ccc2cc[nH]c2c1` [Example 185, 1-(1H-indol-6-yl)-3-(4-(oxazol-2-yl)-3,4-dihydro-2H-benzo[b][1,4]oxazin-7-yl)urea]: the IC50 was ≤ 1 µM.

Regarding `CC(C)(C)c1nc(CN2C(=O)COc3cc(NC(=O)Nc4ccc5cc[nH]c5c4)ccc32)no1` [Example 134, l-(4-((5-(tert-butyl)-1,2,4-oxadiazol-3-yl)methyl)-3-oxo-3,4-dihydro-2H-benzo[b][, 4]oxazin-7-yl)-3-(1H-indol-6-yl)urea], the IC50 is 1 to 10 µM.

Take `O=C(Nc1ccc2c(c1)OCC(=O)N2Cc1ncno1)Nc1ccc2cc[nH]c2c1` [Example 163, 1-(4-((1,2,4-oxadiazol-5-yl)methyl)-3-oxo-3,4-dihydro-2H-benzo[b][1,4]oxazin-7-yl)-3-(1H-indol-6-yl)urea]: the IC50 is > 10 µM.

In the case of `O=C(Nc1ccc(F)cc1)Nc1ccc2c(c1)N(Cc1cn3ccccc3n1)C(=O)CS2` [Example 26, 1-(4-fluorophenyl)-3-(4-(imidazo [1,2-a]pyridin-2-ylmethyl)-3-oxo-3,4-dihydro-2H-benzo[b][1, 4]thiazin-6-yl)urea], the IC50 fell in the range of 1 to 10 µM.

On to `CN1Cc2ccc(NC(=O)Nc3ccc4cc[nH]c4c3)cc2N(Cc2ccccc2)C1=O` [Example 40], for which the IC50 is 1 to 10 µM.

Regarding `O=C(Nc1ccc2c(c1)OCC(=O)N2Cc1ccc(-n2cncn2)cc1)Nc1ccc2cc[nH]c2c1` [Example 128, 1-(4-(4-(1H-1,2,4-triazol-1-yl)benzyl)-3-oxo-3,4-dihydro-2H-benzo[b][1, 4]oxazin-7-yl)-3-(1H-indol-6-yl)urea], the IC50 was > 10 µM.

For the molecule `Nc1cccc(CN2C(=O)CSc3ccc(NC(=O)Nc4ccc5cc[nH]c5c4)cc32)c1` [Example 53, l-(4-(3-aminobenzyl)-3-oxo-3,4-dihydro-2H-benzo[b][1, 4]thiazin-6-yl)-3-(1H-indol-6-yl)urea], the IC50 is > 10 µM.

Turning to `NC(=O)C1COc2cc(NC(=O)Nc3ccc4cc[nH]c4c3)ccc2N1Cc1ccccc1` (centres unmarked) [Example 188, 7-(3-(1H-indol-6-yl)ureido)-4-benzyl-3,4-dihydro-2H-benzo[b][1,4]oxazine-3-carboxamide], the IC50 is 1 to 10 µM.

Turning to `O=C(Nc1ccc2c(c1)N(Cc1ccccc1)C(=O)CS2)Nc1ccc2nc[nH]c2c1` [Example 30, 1-(1H-benzo[d]imidazol-6-yl)-3-(4-benzyl-3-oxo-3,4-dihydro-2H-benzo[b][1, 4]thiazin-6-yl)urea], the IC50 was 1 to 10 µM.

`O=S(=O)(Nc1ccc2c(c1)OCCN2c1ccccc1)Nc1ccc2cc[nH]c2c1` [Example 175, N-1H-indol-6-yl-N′-(4-phenyl-3,4-dihydro-2H-1,4-benzoxazin-7-yl)sulfuric diamide]: the IC50 was in the range of 1 to 10 µM.

As to `O=C(Nc1ccc(F)cc1)Nc1ccc2c(c1)SCC(=O)N2Cc1ccccc1` [Example 52, 1-(4-benzyl-3-oxo-3,4-dihydro-2H-benzo[b][1, 4]thiazin-7-yl)-3-(4-fluorophenyl) urea], the IC50 was 1 to 10 µM.

In the case of `O=C(Nc1ccc2c(c1)OCC(=O)N2Cc1ccc2nonc2c1)Nc1ccc2cc[nH]c2c1` [Example 129, l-(4-(benzo[c][1,2,5]oxadiazol-5-ylmethyl)-3-oxo-3,4-dihydro-2H-benzo[b][1,4]oxazin-7-yl)-3-(1H-indol-6-yl)urea], the IC50 was ≤ 1 µM.

In the case of `O=C(Nc1ccc(F)cc1)Nc1ccc2c(c1)N(Cc1cccnc1)C(=O)CS2` [Example 16, l-(4-fluorophenyl)-3-(3-oxo-4-(pyridin-3-ylmethyl)-3,4-dihydro-2H-benzo[b] [1,4]thiazin-6-yl)urea], the IC50 is > 10 µM.

On to `O=C(Nc1ccc2c(c1)OCCN2Cc1ccccc1)Nc1ccc2cc[nH]c2c1` [Example 62, 1-(4-Benzyl-3,4-dihydro-2H-benzo[b][1,4]oxazin-7-yl)-3-(1H-indol-6-yl)urea], for which the IC50 was > 10 µM.

With `O=C(NCc1cc[nH]c1)Nc1ccc2c(c1)OCC(=O)N2Cc1ccccc1` [Example 132, 1-((1H-pyrrol-3-yl)methyl)-3-(4-benzyl-3-oxo-3,4-dihydro-2H-benzo[b][1, 4]oxazin-7-yl)urea], the IC50 was in the range of 1 to 10 µM.

`O=C1CSc2ccc(-c3nnc(Cc4ccccc4)[nH]3)cc2N1Cc1c(F)cccc1Cl` [Example 45]: the IC50 lay within 1 to 10 µM.

For `O=C(Nc1ccc2c(c1)N(Cc1ccccc1)C(=O)CS2)Nc1ccc2cc[nH]c2c1` [Example 1, 1-(4-Benzyl-3-oxo-3,4-dihydro-2H-benzo[b][1,4]thiazin-6-yl)-3-(1H-indol-6-yl)urea], the IC50 was 1 to 10 µM.

Turning to `O=C(Nc1ccc2c(c1)OCC(=O)N2Cc1ccc(SC(F)(F)F)cc1)Nc1ccc2cc[nH]c2c1` [Example 106, 1-(1H-indol-6-yl)-3-(3-oxo-4-(4-((trifluoromethyl)thio)benzyl)-3,4-dihydro-2H-benzo[b][1,4]oxazin-7-yl)urea], the IC50 is ≤ 1 µM.

For `O=C1CSc2ccc(COCc3ccc(F)cc3)cc2N1Cc1c(F)cccc1Cl` [Example 42], the IC50 fell in the range of 1 to 10 µM.
